Experimental data reported in patent US6653345B2, “C-C chemokine synthesis inhibitor” (Toray Industries, Inc., priority 1997, dated 2003).

Experiments:
[1] = system: MCP-1 production of THP-1 cells; test: MCP-1 production of THP-1 cells stimulated with LPS; type: cell-based, human; settings: for Inhibition rate of MCP-1 production of THP-1 cells: same method as Example 1 (LPS), concentration not given; for MCP-1 production of THP-1 cells (effect in words): 10 μg/ml LPS, compound added before LPS, supernatant 24 hours after stimulation
Method: The action of beraprost (BPS) on MCP-1 production was examined by using human monocyte/macrophage system leukemic cells THP-1. Lipopolysaccharide (LPS: Difco Corp.) reactive substrains were isolated from THP-1 cells (obtained from ATCC Corp.), and cultured in a RPMI 1640 medium (Gibco Corp.) containing 10% FCS in a flask. The THP-1 cells (1×10^5 cells) were dispensed to a 12-well plate, and activated with 10 μg/ml of LPS. BPS was added 5 minutes before LPS stimulation. A cell supernatant was obtained 24 hours after stimulation, and the amount of MCP-1 production was measured by using a human MCP-1 eraser kit (R&D Corp.). The amount of production was calculated based on a calibration curve formed in the range of 31.2 to 2000 pg/ml by using MCP-1 standards contained in the kit.
The actions of prostaglandin I2 (PGI2), prostaglandin E1 (PGE1), and prostaglandin E2 (PGE2) on MCP-1 production were examined by the same method as Example 1. As a result, MCP-1 production was inhibited by PGI2, PGE1, and PGE2 (FIG. 6).
The actions of the compounds shown in the table below on MCP-1 production by the same method as Example 1. The action of each of the compounds was shown by an inhibition rate. As a result, MCP-1 production was inhibited by these compounds (Table 2).

[2] = system: MCP-1 mRNA of THP-1 cells; test: Expression of MCP-1 mRNA of THP-1 cells stimulated with LPS; type: cell-based, human; settings: 10 μg/ml LPS, RNA 24 hours after stimulation
Method: The action of BPS on MCP-1 production was examined by using human monocyte/macrophage system leukemic cells THP-1 and the amount of mRNA expression as an index. LPS reactive substrains were isolated from THP-1 cells, and cultured in a RPMI 1640 medium containing 10% FCS in a flask. THP-1 cells (1×10^6 cells) were dispensed to a petri dish having a diameter of 10 cm, and activated with 10 μg/ml of LPS. BPS was added 5 minutes before LPS stimulation. The total of RNA was extracted with a LiCl-urea solution (6M urea/3M LiCl/5 mM EDTA) 24 hours after stimulation, and dissolved in a TE solution (10 mm Tris-HCl/lmM EDTA, pH 8.0), and then proteins were removed with phenol and chloroform, followed by RNA recovery by ethanol precipitation. RNA was developed by formaldehyde-modified 1% agarose gel, and transferred to a Hybond-N filter (Amersham Corp.), and then MCP-1 mRNA was detected by using a ^32 human MCP-1 probe. The detection was carried out by using a X-ray film or imaging film, and the amount of expression was digitized by BAS2000.

[3] = system: streptozotocin-induced diabetic rats; test: Neurotransmission rate of the ischiatic nerve in streptozotocin-induced diabetic rats; type: in vivo, rat
[4] = system: glomerulonephritis rat model; test: Glomerulonephritis rat model (anti-glomerular basement membrane antibody); type: in vivo
Method: A glomerular basement membrane was administered with an antibody to form a glomerulonephritis rat model. The rats used were 9-week old male WKY rats which were purchased from Japan Charles River. The antibody was obtained by immunizing the rat glomerular basement membrane against rabbits. […] A glomerular lesion such as formation of the crescent was also confirmed by pathological findings, and an irreversible glomerulonephritis model could be formed by administering the antibody to the anti-glomerular basement membrane. MCP-1 production in the kidney was increased with the passage of days after administration of the antibody to produce infiltration of leukocytes such as macrophages and the like. 1 mg/kg of BPS was orally administered on consecutive days to study the action of BPS on MCP-1 production and infiltration of the macrophages. The MCP-1 production was studied by purifying messenger RNA (mRNA) from the rat kidneys, and determining the amount of MCP-1 mRNA expression by quantitative PCR. The macrophage infiltration was studied by immunostaining with an anti-macrophage antibody (ED-1), and then counting the macrophages infiltrated into the glomeruli under a microscope. […] Using the same glomerulonephritis model, the action of BPS on the amount of urea protein was studied 4 days and 7 days after administration of the antibody.

[5] = system: MCP-1 amount in blood; test: MCP-1 amount in LPS-induced blood of streptozotocin diabetic rats; type: in vivo, rat
Method: SD male rats were intravenously administered with 45 mg/kg streptozotocin to induce diabetes. At the eighth week after 2 mg/kg of LPS was administered to the rats to measure the MCP-1 amount in the blood before administration and 3 and 6 hours after administration. BPS was orally administered to the rats 30 minutes before LPS administration. Rats of the same age as the diabetic rat group were used as a normal group.

[6] = system: MCP-3 production of THP-1 cells; test: MCP-3 production of THP-1 cells stimulated with LPS; type: cell-based, human; settings: 10 μg/ml LPS, supernatant 24 hours after stimulation
Method: The action of BPS on MCP-3 production was examined by using human monocyte/macrophage system leukemic cells THP-1. LPS reactive substrains were isolated from THP-1 cells, and cultured in a RPMI 1640 medium containing 10% FCS in a flask. THP-1 cells (1×10^6 cells) were dispensed to a 12-well plate, and activated with 10 μg/ml of LPS. BPS was added 5 minutes before LPS stimulation. A cell supernatant was obtained 24 hours after stimulation, and the amount of the MCP-3 produced was measured by using a MCP-3 detection method developed by the inventors. The amount of production was calculated based on a calibration curve formed in the range of 0.195 to 12.5 ng/ml by using MCP-3 standards.

[7] = system: MCP-1 production of human peripheral blood monocytes; test: MCP-1 production of human peripheral blood monocytes stimulated with TPA; type: cell-based
Method: Monocytes derived from the human peripheral blood were isolated by the same method as Example 3, and stimulated with 25 nM 12-o-tetradecanoylphorbol 13-acetate (TPA) to induce MCP-1 production. The action of BPS on MCP-1 production was studied.
(§1) The action of prostaglandin J2 (PGJ2) on MCP-1 production due to LPS or TPA simulation was studied by the same method as Examples 3 and 8 using monocytes derived from the human peripheral blood. PGJ2 was added 1 minute before stimulation. As a result, MCP-1 production due to stimulation by either LPS or TPA was inhibited by PGJ2(Table 3).

[8] = system: MCP-1 production of human peripheral blood monocytes; test: MCP-1 production of human peripheral blood-derived monocytes stimulated with LPS; type: cell-based
From the text: The action of BPS on MCP-1 production was studied by using human peripheral blood-derived monocytes. The heparinized peripheral blood of a healthy person was superposed on a histo-pack (Sigma Corp.), and centrifuged to obtain a monocyte layer. The thus-obtained monocyte layer was reacted with magnetic beads (Miltenyi Biotec Corp.) of anti—CD3 and anti—CD19, and monocytes were purified by a negative selection method using a MACS column (Miltenyi Biotec Corp.). The thus-obtained monocytes were re-suspended in a RPMI 1640 medium so that 1×10^6 cells/ml of cells were obtained. The cells were dispensed to a 48-well plate, and activated with 10 ng/ml of LPS. BPS was added 5 minutes before LPS stimulation. A cell supernatant was obtained 24 hours after stimulation, and the amount of MCP-1 produced was measured by using a human MCP-1 eraser kit. The amount of production was calculated based on a calibration curve formed in the range of 31.2 to 2000 pg/ml by using MCP-1 standards contained in the kit.
as §1

[9] = system: RANTES production of THP-1 cells; test: RANTES production of THP-1 cells stimulated with LPS; type: cell-based, human; settings: LPS stimulation, 10 μM PGJ2 (5177 without PGJ2)
Method: THP-1 cells were prepared by the same method as Example 1, and stimulated with LPS to induce RANTES production. The amount of RANTES production was measured by RANTES eraser kit (R&D Corp.). The action of PGJ2 on RANTES production was studied.

In the case of `O=C(O)CCc1cccc2c1O[C@H]1C[C@@H](O)C(/C=C/[C@@H](O)c3ccccc3)[C@@H]21` (stereo partly drawn), the “Inhibition rate of MCP-1 production of THP-1 cells” value (“Inhibition rate” below) [1] is reported as 58%.

In the case of `CC(O)CCc1cccc2c1O[C@H]1C[C@@H](O)C(/C=C/[C@@H](O)C(C)(C)Oc3ccccc3)[C@@H]21` (stereo partly drawn), the “Inhibition rate” value [1] is reported as 4%.

In the case of `O=C(O)CCc1cccc2c1O[C@H]1C[C@@H](O)C(/C=C/[C@@H](O)C3CCCCC3)[C@@H]21` (stereo partly drawn), the “Inhibition rate” value [1] is reported as 85%.

In the case of `CC(C)(CO)Cc1cccc2c1O[C@H]1C[C@@H](O)C(/C=C/[C@@H](O)C(C)(C)Oc3ccccc3)[C@@H]21` (stereo partly drawn), the “Inhibition rate” value [1] is reported as 28%.

For `O=C(O)COc1cccc2c1O[C@H]1C[C@@H](O)C(/C=C/[C@@H](O)c3ccccc3)[C@@H]21` (stereo partly drawn), the “Inhibition rate” value [1] was 61%.

`O=C(O)CCc1cccc2c1O[C@H]1C[C@@H](O)C(/C=C/[C@@H](O)CC3CCCCC3)[C@@H]21` (stereo partly drawn) was tested, and the “Inhibition rate” value [1] was 87%.

With `CC#CCC(C)[C@H](O)/C=C/[C@@H]1[C@H]2c3cccc(CCCC(=O)O)c3O[C@H]2C[C@H]1O` (mixture of isomers) [BPS, beraprost] the “MCP-1 production of THP-1 cells (effect in words)” value [1] was “inhibits dose-dependently”, the “expression of MCP-1 mRNA of THP-1 cells (effect in words)” value [2] was “inhibits dose-dependently” and the “decrease in the neurotransmission rate due to diabetes (effect in words)” value [3] was “significantly improved”. For the same compound, the “MCP-1 mRNA expression in kidney (effect in words)” value ([4]; 1 mg/kg BPS oral on consecutive days, 4 days and 7 days after antibody, quantitative PCR) was “inhibition”, the “infiltration of macrophage per glomerulus (effect in words)” value ([4]; 1 mg/kg BPS oral on consecutive days, 4 days and 7 days after antibody, vs distilled water group) was “significantly inhibited” and the “amount of urea protein (effect in words)” value ([4]; 1 mg/kg BPS oral, 4 days and 7 days after administration of the antibody) was “significantly decreased”. The “MCP-1 amount in blood” value ([5]; BPS oral 30 minutes before 2 mg/kg LPS, 3 hours after) was 7.27 ± 2.55 ng/mL, the “MCP-1 amount in blood” value ([5]; BPS oral 30 minutes before 2 mg/kg LPS, 6 hours after) was 4.82 ± 4.40 ng/mL and the “MCP-1 amount in blood” value ([5]; BPS oral 30 minutes before LPS, before LPS administration) was 0.39 ± 0.13 ng/mL. For the same compound, the “MCP-3 production of THP-1 cells (effect in words)” value [6] was “inhibits dose-dependently”, the MCP-1 produced ([7]; 25 nM TPA stimulation, 100 nM BPS (224.7 without BPS)) was 184 pg/1×10^6 cells and the “MCP-1 production of human peripheral blood monocytes (effect in words)” value ([8]; 10 ng/ml LPS, supernatant 24 hours after stimulation) was “inhibits dose-dependently”.

In the case of `CCCCC[C@H](O)/C=C/[C@H]1[C@H](O)CC(=O)[C@@H]1CCCCCCC(=O)O` [PGE1, prostaglandin E1], the “MCP-1 production of THP-1 cells (effect in words)” value [1] is reported as “inhibited”.

In the case of `CCCCC[C@H](O)/C=C/[C@H]1[C@H](O)CC(=O)[C@@H]1C/C=C\CCCC(=O)O` [PGE2, prostaglandin E2], the “MCP-1 production of THP-1 cells (effect in words)” value [1] is reported as “inhibited”.

`CCCCC[C@H](O)/C=C/[C@@H]1[C@H]2C/C(=C/CCCC(=O)O)O[C@H]2C[C@H]1O` [PGI2, prostaglandin I2] was tested, and the “MCP-1 production of THP-1 cells (effect in words)” value [1] was “inhibited”.

Compound `CCCCC[C@H](O)/C=C/[C@H]1C(=O)C=C[C@@H]1C/C=C\CCCC(=O)O` [PGJ2, prostaglandin J2] has an RANTES produced [9] of 2403 pg/5×10^5 cells, an MCP-1 ([7]; TPA 25 nM + PGJ2 10 μM (225 with TPA alone)) of 2 pg/10^6 cells and an MCP-1 ([8]; LPS 10 ng/ml + PGJ2 10 μM (21872 with LPS alone)) of 6 pg/10^6 cells.
